In the METLIN SMRT retention time set (Domingo-Almenara et al. 2019):

Test: gradient 5% acetonitrile 3 min, to 50% in 2 min, to 85% in 15 min, held 3 min, 100 µL/min
Details: column: Zorbax Extend-C18 2.1 x 50 mm; eluents: water / acetonitrile, 0.1% formic acid
Outline: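 Mixtures of ~100 pure standards were chromatographed on a Zorbax Extend-C18 column (2.1 × 50 mm, 1.8 μm) at 100 μL/min using water and acetonitrile, each with 0.1% formic acid. Detection used a quadrupole time-of-flight mass spectrometer in positive and negative ionization mode, and data collection spanned 3 months. Retention time was obtained from adduct peaks picked computationally and each checked manually.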

Row | Structure (SMILES) | RP-LC retention time [s]
1 | COc1ccccc1-c1[nH]ncc1CN1C[C@@H]2CCN(S(C)(=O)=O)C[C@]2(CF)C1 | 583
2 | Cc1ccc(Cl)cc1NC(=O)Cn1c(=O)cnc2cc(C(=O)NC3CC3)ccc21 | 674
3 | Cc1ccnc(N2CCCC(C(=O)NC3CCCC3)C2)n1 (stereo unspecified) | 674
4 | CC(C)(C)C1CCc2[nH]nc(C(=O)N3CCc4nn(CC#N)c(=O)n4CC3)c2C1 (stereo unspecified) | 760
5 | CNC(=O)c1ccccc1Nc1nc(Nc2ccc(N3CCOCC3)cc2OC)ncc1Cl | 722
6 | O=C(c1csc(N2CCCC2)n1)N1CCOCC1 | 628
7 | Cc1cccc(S(=O)(=O)N2CCc3c(c(-c4nnc(-c5ccc(F)cc5)o4)nn3C)C2)c1 | 955
8 | COc1ccc(Cl)cc1NC(=O)NCCCn1c(C(F)(F)F)nc2cccnc21 | 890
9 | O=S(=O)(c1cccs1)N1CCC(n2cnnc2-c2ccccc2)CC1 | 744
10 | COc1ccc(-c2cn3c(CC(=O)N4CCCc5ccccc54)csc3n2)cc1OC | 775
11 | Cc1cc(C)n(CC(=O)N2CCN(c3ccccc3)CC2)c1-c1nc(C2CC2)no1 | 932
12 | Cc1ccc(C(=O)Nc2ccccc2[N+](=O)[O-])cc1 | 967
13 | CCN(CC)CCCNC(=O)CN1C(=O)CCn2nc(-c3cn(C)c4ccccc34)cc21 | 613
14 | O=C1C2N=NN(Cc3nc(-c4ccc5c(c4)OCO5)no3)C2C(=O)N1c1ccccc1 (stereo unspecified) | 893
15 | O=C(NCc1ccccc1F)C1CCCN(c2nccnc2Sc2ccccc2)C1 (stereo unspecified) | 1050
16 | O=C(C1CCCN(c2ncnc3c2nc2n3CCCCC2)C1)N1CCN(c2ccc(F)cc2)CC1 (stereo unspecified) | 829
17 | COC(=O)c1ccccc1NC1=NS(=O)(=O)C(c2ccc(F)cc2)=C1C | 1050
18 | Cc1nc(-c2ccc(-c3noc(COc4ccc(Cl)cc4)n3)cc2)cs1 | 1280
19 | CC(C)(C)c1ccc(C(=O)CCCN2CCC(OC(c3ccccc3)c3ccccc3)CC2)cc1 | 1190
20 | CCC(C)C(NC(=O)c1cccc(Cl)c1)C(=O)Nc1nc2ccccc2[nH]1 (stereo unspecified) | 750
21 | Cc1cc(C)cc(N2CC(c3nc(-c4ccccc4F)no3)CC2=O)c1 (stereo unspecified) | 1010
22 | O=C(CNC(=O)Cc1ccccc1)NCC(=O)N1CCCc2ccccc21 | 710

Row | Structure (SMILES) | RP-LC retention time [s]
23 | COc1ccccc1-c1nc(Cn2nnc(-c3nc(-c4cccc(OC)c4OC)no3)c2C)c(C)o1 | 1050
24 | Cc1cccc(OCc2nc(-c3ccc4c(c3)nnn4CCC(=O)N3CCOCC3)no2)c1 | 863
25 | C=CCn1c(C)c(CC(=O)Nc2ccc(F)c(F)c2)c(=O)n2nc(-c3ccc(C)cc3)nc12 | 838
26 | Cn1cc(-c2cc3n(n2)CCCN3C(=O)CCC(=O)N2CCN(c3ccccc3)CC2)c2ccccc21 | 840
27 | COc1ccc(OC)c(CCNC(=O)c2c(N3CCCC3=O)c3cc(OC)ccc3n2C)c1 | 867
28 | COC(=O)c1cc(S(=O)(=O)N2CCCC2C(=O)N2CCN(c3cccc(Cl)c3)CC2)cn1C (stereo unspecified) | 929
29 | Cc1ccc(NC(=O)Nc2ccc3nnc(C)n3c2)c(C)c1 | 695
30 | CCOC(=O)CNC(=O)Nc1ccc(-c2nc(-c3cc(C)ccc3C)co2)cc1 | 1040
31 | COCCc1noc([C@@H]2CC(F)(F)CN2C(=O)c2ocnc2C)n1 | 689
32 | Cc1cc(=O)n(CC(=O)NCc2ccc(Cl)cc2)c(N)n1 | 613
33 | Fc1cccc(Cn2cc(-c3noc(-c4ccc5c(c4)OCO5)n3)nn2)c1 | 962
34 | Cc1cc(=O)n(CC(=O)Nc2ccc3c(c2)OCO3)c(N2CCCC2)n1 | 629
35 | CCc1cc(=O)n(CC(=O)NCc2cccc(OC)c2)c(N)n1 | 584
36 | CC(C)NC(=O)C1CC(=O)N(c2ccc3c(c2)CCN3C(=O)C2CC2)C1 (stereo unspecified) | 657
37 | O=C(NCc1csc(C2CCN(C(=O)c3ccccc3Cl)CC2)n1)C1CCC1 | 725
38 | C=CCNC(=O)N1CCCN(C2=NS(=O)(=O)C(c3ccccc3)=C2C)CC1 | 713
39 | CCCN(CC1CCOC1)C(=O)Nc1ccc(C)cc1 (stereo unspecified) | 764
40 | Fc1ccc(CN2CCC(N3CC4(CCCCC4)C3c3ccncc3)CC2)cc1F (stereo unspecified) | 604
41 | Nc1ccc(C(=O)c2cccs2)cn1 | 634
42 | COC(=O)c1cccc(NC(=O)N2C[C@@H]3C[C@H]2C[C@@H]3NC(=O)c2ccccc2)c1 | 736
43 | COc1ccc(NS(=O)(=O)c2ccc3c(c2)C(=O)N(C)c2ncccc2O3)cc1 | 844
44 | CCCCN(C)C(=O)c1cc2sc(C)c(CN3CCCC3)c2[nH]1 | 671

Row | Structure (SMILES) | RP-LC retention time [s]
45 | Cc1ccc(CNC(=O)Cn2cnc3c(sc4nc(-c5ccccc5)ccc43)c2=O)cc1 | 880
46 | O=C(c1cncc(Br)c1)N1CCc2cc(-c3csc(C4CC4)n3)ccc21 | 1070
47 | CCOC(=O)c1oc2ccc(S(=O)(=O)N3CCCCCCNC(=O)[C@@H]4CCC[C@@H]43)cc2c1C | 1060
48 | Cc1ccc(-c2noc(Cc3nnc(-c4ccc(C)c(F)c4)o3)n2)cc1C | 1210
49 | Cc1cc(Cl)ccc1NC(=O)C1CCN(S(=O)(=O)c2cc(C(=O)N3CCCC3)cs2)CC1 | 892
50 | Cc1cc2ncn(S(=O)(=O)N3CCCC3)c2cc1C | 837
51 | Cc1cccc(OCC(=O)Nc2cccn3nc(C)nc23)c1 | 834
52 | CCNC(=O)C1CCN(c2nc3ccc(-c4ccccc4F)nc3s2)CC1 | 848
53 | Cc1nc(OCC(=O)N2CCCCCC2)c2c(-c3ccc(F)cc3)noc2n1 | 1100
54 | CCCC(=O)N1CC(=O)Nc2ccc(Br)cc2C1c1ccccc1 (stereo unspecified) | 892
55 | CCSc1nnc(-c2nn(C)c3c2CN(S(=O)(=O)c2ccc(OC)cc2)CC3)n1CC | 905
56 | CCc1nc(-c2c(C)cc(C)nc2NC(=O)c2ccc(F)cc2)no1 | 812
57 | CN(C)c1nccnc1OC1CCN(C(=O)C2CCOCC2)C1 (stereo unspecified) | 605
58 | COCCN(CCOC)c1nc(S(=O)(=O)c2ccc(C)cc2)c(Cl)s1 | 939
59 | CCN(CC)S(=O)(=O)N1CCC(C(=O)Nc2ccc3sc(NC(=O)C(C)C)nc3c2)CC1 | 854
60 | Cc1ccc2[nH]c(C(=O)NC3CC3)cc2c1 | 782
61 | COc1ccc(-c2noc(Cn3c(=O)n(CC4CCCO4)c(=O)c4ccccc43)n2)cc1OC (stereo unspecified) | 828
62 | CSc1cccc(NC(=O)N2CCC(n3c(C)nc4cccnc43)CC2)c1 | 647
63 | CCC(C)NC(=O)c1cn(-c2ccc(-c3nc(C4CC4)no3)cn2)cn1 (stereo unspecified) | 883
64 | O=C(Nc1ccc(C(F)(F)F)cn1)c1cccc2cccnc12 | 1090
65 | COc1cccc(-n2c(N3CCC(C(=O)NC4CC4)CC3)nc3ccsc3c2=O)c1 | 682
66 | COc1cc(Cl)ccc1C(=O)N1CCN(c2nc3ccncc3n(C)c2=O)CC1 | 638
